In PMC8329197, “Compounds targeting OSBPL7 increase ABCA1-dependent cholesterol efflux preserving kidney function in two models of kidney disease” (Nature Communications, 2021):
Several values for one entry are separate records, joined by “and”; a condition that tells them apart may be missing. Equal values may be shown once.

Assays:
[1] = system: Adriamycin (ADR)-induced nephropathy in Balb/c mice; test: Adriamycin-induced nephropathy, main study: albumin/creatinine ratio and body weight; details: for ACR, median / Weight Change (as % of weight at day 0), Median / Weight Change (as % of weight at day 0): Cpd A 30, Cpd G 100, Cpd C 10 mg/Kg; for ACR, median: group median; for Weight (d28): animal weight when therapy finished; for Weight (d28) / Weight Change (as % of weight at day 0) / ACR values (mg Albumin / mg Creatinine): single animals; for Weight Change (as % of weight at day 0), Median / Weight Change (as % of weight at day 0): day 28 after ADR; for ACR values (mg Albumin / mg Creatinine): spot urine 28 days after ADR, oral daily Cpd A 30, Cpd G 100, Cpd C 10 mg/Kg; for Times lower ACR: vs ADR+V, Cpd A 30, Cpd G 100 mg/kg/day
[2] = system: Adriamycin (ADR)-induced nephropathy in Balb/c mice; test: ADR nephropathy: liver total cholesterol, cholesterol esters, triglycerides; type: in vivo, mouse; details: for LIVER CHOLESTEROL ESTERS / LIVER TOTAL CHOLESTEROL / LIVER TRIGLICERIDES: ADR model, individual animals; for Hepatic triglyceride content vs. vehicle-treated controls: ADR-challenged, 28 days
ABCA1 protein = test: Cell fractionation: ABCA1 in plasma membrane and microsomal fractions of podocytes; type: cell-based, human; details: Cpd A 5 µM, Cpd G 10 µM; for ABCA1 at the plasma membrane / ABCA1 in microsomal fractions: podocytes
Description: Lysates, or cell fractions were incubated in Laemmli buffer at 55 °C for 10 min under reducing conditions. A total of 30 μg of protein from cell lysates or one-third of the volume collected in cell fraction preparations was separated by SDS-PAGE in 4–20% gradient gels (Biorad) and proteins were then transferred to PVDF membranes. After blocking with 5% TBS-milk, membranes were probed with primary antibodies overnight at 4 °C. The following primary antibodies were used: mouse anti-ABCA1 (Abcam; 1:1000), rabbit anti-GAPDH antibody (Millipore; 1:10,000), mouse anti-actin (CP01, Millipore 1:10,000), anti-MEK, anti-ERp72, anti-V5 and anti-Na^+/K^+ ATPase (Cell Signaling; all 1:1000), and rabbit anti-OSBPL7 (Sigma; 1:1000). After washing, membranes were incubated with anti-rabbit or and anti-mouse IgG-HRP antibodies (Promega, 1:10,000). Signals were detected after incubation with Westernbright ECL HRP substrate (Advansta) and luminescence signals were captured with Azure C600 Gel Imaging workstation (Azure Biosystems Inc, USA) or X-ray films.
Differentiated podocytes were treated with compounds Cpd C (1 μM), Cpd A (5 μM), or Cpd G (10 μM) for 18 h, washed and then harvested in ice-cold PBS. Cells were centrifuged at 1000 × g for 5 min, the supernatant was carefully removed, and the pellet resuspended in hypotonic buffer (15 mM KCl, 1.5 mM MgCl2, 10 mM HEPES and 1 mM DTT) supplemented with a protease inhibitor cocktail (Roche). Cells were disrupted with a glass douncer, and sucrose was added to achieve final concentration of 227 mM. Cell lysates were centrifuged at 1000 × g for 30 min at 4 °C. The supernatant was then transferred to a new tube and centrifuged at 10,000 × g for 15 min at 4 °C. The pellet, containing the microsomal fraction was collected and the supernatant was transferred to a new tube and centrifuged at 100,000 × g for 1 h at 4 °C. The pelleted plasma membrane fraction was collected and the supernatant, containing the organelle-free cytosolic fraction, was concentrated in Vivaspin 500 filter columns. Western blot was performed using antibodies for ABCA1 and specific markers for each membrane fraction as described above. Na^+/K^+ ATPase was used to identify the plasma membrane fraction, ERp72 as a marker for the microsomal-enriched fraction, and MEK as the control for the non-membranous cytosolic fraction.

human podocytes = test: apoAI-mediated cholesterol efflux in human podocytes; type: cell-based; details: for ApoA1-mediated cholesterol efflux (%) in podocytes: single experiments; for Increase in apoAI-mediated cholesterol efflux vs. untreated cells: Cpd G 10 µM, Cpd A 5 µM, Cpd C 1 µM
Description: Cell lines were purchased from ATCC and subcultured for no more than passage 15, except for human podocytes, which were originally from Dr Jochen Reiser. Conditionally immortalized human podocytes were cultured under permissive conditions at 33 °C, in RPMI medium (Corning) containing 10% FBS (GIBCO), 1% penicillin/streptomycin, 0.01 mg/ml recombinant human insulin, 0.0055 mg/ml human transferrin (substantially iron-free), and 0.005 μg/ml sodium selenite (ITS, Corning). To induce differentiation, podocytes were cultured at 37 °C for 14 days in RPMI medium containing 10% FBS (GIBCO) and 1% penicillin/streptomycin. Differentiated podocytes were starved in RPMI-0.2% FBS for 18 h and then treated with 1 μM, 5 μM, and 10 μM of compounds freshly prepared in DMSO for 18 h at 37 °C as indicated.
Human podocytes differentiated for 13 days were labeled for 24 h at 37 °C in RPMI medium containing 2% FBS and [^3H]-cholesterol (1 μCi/ml, American Radiolabeled Chemicals). Cells were then washed 3 times with PBS and incubated with RPMI supplemented with 0.2% fat free-BSA (Sigma) with or without compounds for 18-h at 37 °C. The compounds were used at the following concentrations: Cpd C (1 μM), Cpd A (1 μM, 5 μM) and Cpd G (1 μM, 5 μM, 10 μM). Following the 18-h incubation, human apoAI (Calbiochem) was added to the media, (20 μg/mL final concentration) and the cells were incubated for another 18 h at 37 °C. Aliquots of medium collected before (T = 0 h) and after (T = 18 h) the addition of apoAI were centrifuged at 12,000 × g for 5 min and the radioactivity in the supernatant was counted by liquid scintillation. Cells were then washed with PBS, lysed 0.1% SDS, 0.1M NaOH and the radioactivity in the lysates was quantified by liquid scintillation. apoAI-mediated cholesterol efflux, expressed as %, was calculated as the amount of label released to the medium after adding apoAI (the difference in radioactivity in the medium before and after adding ApoA1) divided by the amount of total label in each well (radioactivity released to the media plus radioactivity in the lysed cells).

[3] = ratio, Cpd C 1 µM, single preparations
[4] = 28 days after ADR, Cpd G 100 mg/Kg

Hepatic triglyceride content vs. vehicle-treated controls [2]	SMILES	Effect on weight loss ([1]; 28 days after ADR)	ACR, median ([1]; 28 days after ADR)	Weight (d28) [1]	Weight Change (as % of weight at day 0), Median [1] [%]	Weight Change (as % of weight at day 0) [1]	ACR values (mg Albumin / mg Creatinine) [1]	Times lower ACR ([1]; 28 days) [times]	LIVER CHOLESTEROL ESTERS [2]	LIVER TOTAL CHOLESTEROL [2]	LIVER TRIGLICERIDES [2]	ABCA1 at the plasma membrane (ABCA1 protein)	ABCA1 in microsomal fractions (ABCA1 protein)	ApoA1-mediated cholesterol efflux (%) in podocytes (human podocytes; 1 uM)	ApoA1-mediated cholesterol efflux (%) in podocytes (human podocytes; 5 uM)	Increase in apoAI-mediated cholesterol efflux vs. untreated cells (human podocytes) [fold]	further results
increased hepatic triglyceride content	O=C(N[C@@H]1CCCC[C@H]1O)c1ccc(OCC(F)(F)F)c(-c2ccc(Cl)c(Cl)c2)n1 [Cpd A]	substantially reduced weight loss	2.3 mg albumin/mg creatinine and 2.363 mg albumin/mg creatinine	19 and 21 and 18 and 15 and 20	0	0% and -5.3% and -4.5% and -6.3% and -25% and 5.6%	0.242 mg Albumin / mg Creatinine and 6.27 mg Albumin / mg Creatinine and 20.39 mg Albumin / mg Creatinine and 14.37 mg Albumin / mg Creatinine and 0.707 mg Albumin / mg Creatinine and 11.834 mg Albumin / mg Creatinine and 0.631 mg Albumin / mg Creatinine and 2.363 mg Albumin / mg Creatinine and 0.33 mg Albumin / mg Creatinine and 3.08 mg Albumin / mg Creatinine and 0.093 mg Albumin / mg Creatinine	8	1.39 nmol CE/ mg protein and 2.25 nmol CE/ mg protein and 2.79 nmol CE/ mg protein and 8 nmol CE/ mg protein and 3.82 nmol CE/ mg protein and 8.05 nmol CE/ mg protein	120 nmol Cholesterol/ mg protein and 119 nmol Cholesterol/ mg protein and 149 nmol Cholesterol/ mg protein and 163 nmol Cholesterol/ mg protein and 112 nmol Cholesterol/ mg protein and 195 nmol Cholesterol/ mg protein	75 nmol Triglycerides/ mg protein and 54.7 nmol Triglycerides/ mg protein and 58 nmol Triglycerides/ mg protein and 69 nmol Triglycerides/ mg protein and 38 nmol Triglycerides/ mg protein and 54.5 nmol Triglycerides/ mg protein	increased ABCA1 at the plasma membrane	did not increase ABCA1 in microsomal fractions	4.2% and 0.9% and 3.2% and 3.5% and 3.7%	3.3% and 4.4% and 1.5% and 3.7% and 2.4% and 6.4% and 7.6% and 3.5%	~2	–
increased hepatic triglyceride content	Cc1oc(-c2cccc(C(F)(F)F)c2)nc1Cn1c(C)cc2cc(C(O)(C(F)(F)F)C(F)(F)F)ccc21 [Cpd C, reference compound]	no significant effect to prevent weight loss	6.591 mg albumin/mg creatinine	19 and 13 and 20 and 16 and 22 and 17 and 18	-5	5.3% and 5.6% and -15.8% and 4.8% and -15% and 0% and -10% and -5% and -27.8%	97.01 mg Albumin / mg Creatinine and 0.196 mg Albumin / mg Creatinine and 5.6 mg Albumin / mg Creatinine and 6.591 mg Albumin / mg Creatinine and 5.609 mg Albumin / mg Creatinine and 28.989 mg Albumin / mg Creatinine and 87.25 mg Albumin / mg Creatinine and 19.88 mg Albumin / mg Creatinine and 5.463 mg Albumin / mg Creatinine	–	3.92 nmol CE/ mg protein and 1.48 nmol CE/ mg protein and 3.2 nmol CE/ mg protein and 3.1 nmol CE/ mg protein	132 nmol Cholesterol/ mg protein and 89 nmol Cholesterol/ mg protein and 311 nmol Cholesterol/ mg protein and 91 nmol Cholesterol/ mg protein	48.5 nmol Triglycerides/ mg protein and 45 nmol Triglycerides/ mg protein and 67 nmol Triglycerides/ mg protein and 56 nmol Triglycerides/ mg protein	–	–	4.5% and 5% and 2.7% and 7.8% and 4.9% and 4.1% and 8.1%	–	~2	Reduction in ACR ([1]; Cpd C 10 mg/Kg, 28 days): more variable reduction in ACR; MICROSOMAL FRACTION:ABCA1/ERp72 (ABCA1 protein; [3]): 1.10 and 1.82 and 1.06; PLASMA MEMBRANE FRACTION: ABCA1/NaK ATPase (ABCA1 protein; [3]): 1.10 and 0.65 and 0.77 and 1.14
–	O=C(N[C@@H]1CCCC[C@H]1O)c1cnc(OCC(F)(F)F)c(-c2ccc(Cl)c(Cl)c2)c1 [Cpd G]	substantially reduced weight loss	0.6 mg albumin/mg creatinine and 0.576 mg albumin/mg creatinine	20 and 21 and 20.5 and 16 and 19 and 17	0	5% and 2.5% and 0% and -9.1% and -5%	3.053 mg Albumin / mg Creatinine and 3.33 mg Albumin / mg Creatinine and 0.105 mg Albumin / mg Creatinine and 0.292 mg Albumin / mg Creatinine and 4.643 mg Albumin / mg Creatinine and 4.983 mg Albumin / mg Creatinine and 0.09 mg Albumin / mg Creatinine and 0.018 mg Albumin / mg Creatinine and 0.86 mg Albumin / mg Creatinine and 0.271 mg Albumin / mg Creatinine	30	2.88 nmol CE/ mg protein and 6.03 nmol CE/ mg protein and 6.11 nmol CE/ mg protein and 1.54 nmol CE/ mg protein and 4.33 nmol CE/ mg protein and 2.97 nmol CE/ mg protein and 3.06 nmol CE/ mg protein	118 nmol Cholesterol/ mg protein and 122 nmol Cholesterol/ mg protein and 97.7 nmol Cholesterol/ mg protein and 114 nmol Cholesterol/ mg protein and 146 nmol Cholesterol/ mg protein	35 nmol Triglycerides/ mg protein and 30 nmol Triglycerides/ mg protein and 48.4 nmol Triglycerides/ mg protein and 51 nmol Triglycerides/ mg protein and 39 nmol Triglycerides/ mg protein	increased ABCA1 at the plasma membrane	did not increase ABCA1 in microsomal fractions	0.3% and 1.2% and 1.6%	0% and 2.5% and 2.3%	~2	Mice that showed no weight loss [1, 4]: 7 out of 10; Weight loss of the remaining 3 mice [1, 4]: less than 5%; ApoA1-mediated cholesterol efflux (%) in podocytes (human podocytes; 10 uM): 4.4% and 7.9%
